Measurements as given in article PMC7463651, “Phase I/Ib Study of Tenalisib (RP6530), a Dual PI3K δ/γ Inhibitor in Patients with Relapsed/Refractory T-Cell Lymphoma” (Cancers, 2020).
Entries after “also recorded” stand apart in the source; their conditions may differ.

Test system: patients with relapsed/refractory T Cell Lymphoma
Assay: Safety assessment (adverse events per CTCAE v4.03, DLT/MTD) in phase I/Ib study
Type: in vivo, human
Experimental: Protocol defined hematological or non-hematological toxicity was considered dose-limiting if it occurred during the first cycle (within the first 28 d) and was considered related to Tenalisib. Hematological DLTs was defined as Grade 4 anemia; Grade 4 neutropenia for >7 days, or Grade ≥3 febrile neutropenia with fever >38.5 °C [101 °F]; Grade 4 thrombocytopenia for >7 days, or Grade ≥3 thrombocytopenia associated with Grade >2 bleeding.
Safety assessment included adverse event (AE) and serious adverse events (SAE) as per Common Terminology Criteria for Adverse Events (CTCAE), Version 4.03. During dose escalation, safety assessments were performed at weekly intervals during Cycle 1 and Cycle 2 and at two weekly intervals during Cycle 3 and 4. After completion of Cycle 4, safety assessments were performed on Day 1 of each subsequent cycle. In dose expansion phase, all safety assessments were performed on Day 1 of each cycle.

[1] = Relationship-Related, Dose Escalation (N = 19)
[2] = Relationship-Related, Dose Expansion (N = 39)
[3] = Relationship-Related, Total (N = 58)
[4] = Relationship-all, Dose Escalation (N = 19)
[5] = Relationship-all, Dose Expansion (N = 39)

CC[C@H](Nc1ncnc2[nH]cnc12)c1oc2ccccc2c(=O)c1-c1cccc(F)c1 [Tenalisib]
Maximum tolerated dose (MTD) (BID, fasting): 800 mg | Number of related AEs (CTCL patients): 208 | Number of related ≥Grade 3 AEs (CTCL patients): 25 | Patients with related AEs (CTCL patients): 27 (90%) n (%) | Patients with related ≥Grade 3 AEs (CTCL patients): 12 (40%) n (%) | Dose-limiting toxicities (DLT) (Cohort 4, 800 mg BID (fed)): Two dose-limiting toxicities; also recorded: Two DLTs (Grade 3 ALT increased and Grade 3 erythematous rash) | Number of related AEs (PTCL patients): 51 | Neutropenia: patients with event [1]: 2 (10.5%) n (%) | Pruritus: count of events [1]: 1 | Pruritus: patients with event [1]: 1 (5.3%) n (%) | Pyrexia: patients with event [1]: 0 n (%) | Vomiting: count of events [1]: 3 | Vomiting: patients with event [1]: 2 (10.5%) n (%) | Alanine aminotransferase increased: count of events [2]: 18 | Alanine aminotransferase increased: patients with event [2]: 12 (30.8%) n (%) | Anemia: count of events [2]: 2 | Anemia: patients with event [2]: 2 (5.1%) n (%) | Aspartate aminotransferase increased: count of events [2]: 20 | Aspartate aminotransferase increased: patients with event [2]: 12 (30.8%) n (%) | Blood alkaline phosphatase increased: count of events [2]: 2 | Blood alkaline phosphatase increased: patients with event [2]: 2 (5.1%) n (%) | Blood thyroid stimulating hormone increased: count of events [2]: 3 | Blood thyroid stimulating hormone increased: patients with event [2]: 2 (5.1%) n (%) | Dehydration: count of events [2]: 3 | Dehydration: patients with event [2]: 3 (7.7%) n (%) | Diarrhea: count of events [2]: 10 | Diarrhea: patients with event [2]: 9 (23.1%) n (%) | Dizziness: count of events [2]: 3 | Dizziness: patients with event [2]: 3 (7.7%) n (%) | Dyspepsia: count of events [2]: 2 | Dyspepsia: patients with event [2]: 2 (5.1%) n (%) | Erythema: count of events [2]: 2 | Erythema: patients with event [2]: 2 (5.1%) n (%) | Fatigue: count of events [2]: 7 | Fatigue: patients with event [2]: 7 (17.9%) n (%) | Gamma-glutamyltransferase increased: count of events [2]: 7 | Gamma-glutamyltransferase increased: patients with event [2]: 5 (12.8%) n (%) | Headache: count of events [2]: 2 | Headache: patients with event [2]: 2 (5.1%) n (%) | Muscle spasms: count of events [2]: 3 | Muscle spasms: patients with event [2]: 3 (7.7%) n (%) | Nausea: count of events [2]: 2 | Nausea: patients with event [2]: 2 (5.1%) n (%) | Neutropenia: count of events [2]: 1 | Neutropenia: patients with event [2]: 1 (2.6%) n (%) | Pruritus: count of events [2]: 3 | Pruritus: patients with event [2]: 3 (7.7%) n (%) | Pyrexia: count of events [2]: 5 | Pyrexia: patients with event [2]: 3 (7.7%) n (%) | Vomiting: count of events [2]: 1 | Vomiting: patients with event [2]: 1 (2.6%) n (%) | Alanine aminotransferase increased: count of events [3]: 31 | Alanine aminotransferase increased: patients with event [3]: 18 (31.0%) n (%) | Anemia: count of events [3]: 3 | Anemia: patients with event [3]: 3 (5.2%) n (%) | Aspartate aminotransferase increased: count of events [3]: 35 | Aspartate aminotransferase increased: patients with event [3]: 18 (31.0%) n (%) | Blood alkaline phosphatase increased: count of events [3]: 3 | Blood alkaline phosphatase increased: patients with event [3]: 3 (5.2%) n (%) | Blood thyroid stimulating hormone increased: count of events [3]: 5 | Blood thyroid stimulating hormone increased: patients with event [3]: 4 (6.9%) n (%) | Dehydration: count of events [3]: 4 | Dehydration: patients with event [3]: 4 (6.9%) n (%) | Diarrhea: count of events [3]: 14 | Diarrhea: patients with event [3]: 12 (20.7%) n (%) | Dizziness: count of events [3]: 5 | Dizziness: patients with event [3]: 5 (8.6%) n (%) | Dyspepsia: count of events [3]: 3 | Dyspepsia: patients with event [3]: 3 (5.2%) n (%) | Erythema: count of events [3]: 3 | Erythema: patients with event [3]: 3 (5.2%) n (%) | Fatigue: count of events [3]: 9 | Fatigue: patients with event [3]: 9 (15.5%) n (%) | Gamma-glutamyltransferase increased: count of events [3]: 9 | Gamma-glutamyltransferase increased: patients with event [3]: 7 (12.1%) n (%) | Headache: count of events [3]: 6 | Headache: patients with event [3]: 5 (8.6%) n (%) | Muscle spasms: count of events [3]: 6 | Muscle spasms: patients with event [3]: 5 (8.6%) n (%) | Nausea: count of events [3]: 4 | Nausea: patients with event [3]: 3 (5.2%) n (%) | Neutropenia: count of events [3]: 3 | Neutropenia: patients with event [3]: 3 (5.2%) n (%) | Pruritus: count of events [3]: 4 | Pruritus: patients with event [3]: 4 (6.9%) n (%) | Pyrexia: count of events [3]: 5 | Pyrexia: patients with event [3]: 3 (5.2%) n (%) | Vomiting: count of events [3]: 4 | Vomiting: patients with event [3]: 3 (5.2%) n (%) | Grade 3/4 Alanine aminotransferase increased: count of events (Relationship-all): 5 | Grade 3/4 Alanine aminotransferase increased: patients with event (Relationship-all): 5 (26.3%) n (%) | Grade 3/4 Anemia: count of events (Relationship-all): 2 | Grade 3/4 Anemia: patients with event (Relationship-all): 2 (10.5%) n (%) | Grade 3/4 Aspartate aminotransferase increased: count of events (Relationship-all): 4 | Grade 3/4 Aspartate aminotransferase increased: patients with event (Relationship-all): 4 (21.1%) n (%) | Grade 3/4 Fatigue: count of events (Relationship-all): 1 | Grade 3/4 Fatigue: patients with event (Relationship-all): 1 (5.3%) n (%) | Grade 3/4 Hyponatremia: count of events (Relationship-all): 2 | Grade 3/4 Hyponatremia: patients with event (Relationship-all): 2 (10.5%) n (%) | Grade 3/4 Neutropenia: count of events (Relationship-all): 2 | Grade 3/4 Neutropenia: patients with event (Relationship-all): 2 (10.5%) n (%) | Grade 3/4 Thrombocytopenia: count of events (Relationship-all): 1 | Grade 3/4 Thrombocytopenia: patients with event (Relationship-all): 1 (5.3%) n (%) | Abdominal pain: count of events [4]: 3 | Abdominal pain: patients with event [4]: 3 (15.8%) n (%) | Alanine aminotransferase increased: count of events [4]: 13 | Alanine aminotransferase increased: patients with event [4]: 6 (31.6%) n (%) | Anemia: count of events [4]: 6 | Anemia: patients with event [4]: 3 (15.8%) n (%) | Aspartate aminotransferase increased: count of events [4]: 16 | Aspartate aminotransferase increased: patients with event [4]: 7 (36.8%) n (%) | Blood creatinine increased: count of events [4]: 1 | Vomiting: count of events [4]: 5 | Vomiting: patients with event [4]: 4 (21.1%) n (%) | Abdominal pain: count of events [5]: 6 | Abdominal pain: patients with event [5]: 5 (12.8%) n (%) | Alanine aminotransferase increased: count of events [5]: 20 | Alanine aminotransferase increased: patients with event [5]: 14 (35.9%) n (%) | Anemia: count of events [5]: 10 | Anemia: patients with event [5]: 6 (15.4%) n (%) | Aspartate aminotransferase increased: count of events [5]: 21 | Aspartate aminotransferase increased: patients with event [5]: 14 (35.9%) n (%) | Blood creatinine increased: count of events [5]: 6 | Blood creatinine increased: patients with event [5]: 6 (15.4%) n (%) | Blood thyroid stimulating hormone increased: count of events [5]: 5 | Blood thyroid stimulating hormone increased: patients with event [5]: 4 (10.3%) n (%) | Constipation: count of events [5]: 5 | Constipation: patients with event [5]: 5 (12.8%) n (%) | Cough: count of events [5]: 9 | Cough: patients with event [5]: 7 (17.9%) n (%) | Decreased appetite: count of events [5]: 8 | Decreased appetite: patients with event [5]: 7 (17.9%) n (%) | Dehydration: count of events [5]: 13 | Dehydration: patients with event [5]: 10 (25.6%) n (%) | Diarrhea: count of events [5]: 19 | Diarrhea: patients with event [5]: 14 (35.9%) n (%) | Dizziness: count of events [5]: 9 | Dizziness: patients with event [5]: 7 (17.9%) n (%) | Dry skin: count of events [5]: 6 | Dry skin: patients with event [5]: 5 (12.8%) n (%) | Dyspnea: count of events [5]: 2 | Dyspnea: patients with event [5]: 2 (5.1%) n (%) | Fatigue: count of events [5]: 19 | Fatigue: patients with event [5]: 18 (46.2%) n (%) | Gamma-glutamyl transferase increased: count of events [5]: 9 | Gamma-glutamyl transferase increased: patients with event [5]: 6 (15.4%) n (%) | Headache: count of events [5]: 9 | Headache: patients with event [5]: 7 (17.9%) n (%) | Hypokalemia: count of events [5]: 5 | Hypokalemia: patients with event [5]: 3 (7.7%) n (%) | Hyponatremia: count of events [5]: 5 | Hyponatremia: patients with event [5]: 4 (10.3%) n (%) | Insomnia: count of events [5]: 4 | Insomnia: patients with event [5]: 3 (7.7%) n (%) | Muscle spasms: count of events [5]: 4 | Muscle spasms: patients with event [5]: 4 (10.3%) n (%) | Nausea: count of events [5]: 9 | Nausea: patients with event [5]: 9 (23.1%) n (%) | Pruritus: count of events [5]: 5 | Pruritus: patients with event [5]: 5 (12.8%) n (%) | Psychiatric disorders: count of events [5]: 12 | Psychiatric disorders: patients with event [5]: 7 (17.9%) n (%) | Pyrexia: count of events [5]: 17
